Source: publication PMC3005334 (Cell, 2010)

Tests used:
[1] = test system: 21 ergosterol biosynthetic proteins (Erg proteins); conditions: of 21 Erg enzymes, above the control
[2] = test system: Atg1, Psk2 and denatured Ypk1; assay: In vitro small metabolite-protein binding assay; design: species or system Saccharomyces cerevisiae; conditions: denatured protein or control proteins; indicates non-specific adsorption
Kin4 = target: T1, Kin4 (Saccharomyces cerevisiae, UniProt Q01919); assay: Affinity purification of tagged protein kinase and LC-MS of bound metabolites; format: binding; conditions: 379.337 amu at 10.98 min
T1 sequence (Q01919 1-800): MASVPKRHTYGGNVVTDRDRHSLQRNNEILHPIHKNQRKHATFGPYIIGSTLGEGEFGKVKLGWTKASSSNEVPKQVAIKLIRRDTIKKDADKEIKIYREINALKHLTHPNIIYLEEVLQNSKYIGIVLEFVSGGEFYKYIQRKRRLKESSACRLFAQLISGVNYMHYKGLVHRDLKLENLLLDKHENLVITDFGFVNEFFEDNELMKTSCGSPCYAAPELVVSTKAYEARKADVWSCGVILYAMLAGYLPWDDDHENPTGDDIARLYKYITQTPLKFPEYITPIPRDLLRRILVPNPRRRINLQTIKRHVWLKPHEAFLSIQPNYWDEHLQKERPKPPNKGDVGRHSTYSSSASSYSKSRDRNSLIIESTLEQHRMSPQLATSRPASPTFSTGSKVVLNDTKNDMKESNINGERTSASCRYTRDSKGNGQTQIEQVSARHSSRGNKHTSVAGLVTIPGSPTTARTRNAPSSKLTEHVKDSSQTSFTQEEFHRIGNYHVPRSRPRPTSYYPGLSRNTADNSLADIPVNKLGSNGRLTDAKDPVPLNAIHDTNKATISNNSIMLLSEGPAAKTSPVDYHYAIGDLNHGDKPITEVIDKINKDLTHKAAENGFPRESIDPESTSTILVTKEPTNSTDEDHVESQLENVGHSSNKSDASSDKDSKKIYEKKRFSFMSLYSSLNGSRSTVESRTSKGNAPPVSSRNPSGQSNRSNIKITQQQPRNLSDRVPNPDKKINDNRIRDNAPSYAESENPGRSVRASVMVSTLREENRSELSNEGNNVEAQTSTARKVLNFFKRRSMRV

Ypk1 [3] = target: T2, Ypk1 (Saccharomyces cerevisiae, UniProt P12688); assay: In vitro kinase activity assay; format: biochemical
T2 sequence (P12688 1-680): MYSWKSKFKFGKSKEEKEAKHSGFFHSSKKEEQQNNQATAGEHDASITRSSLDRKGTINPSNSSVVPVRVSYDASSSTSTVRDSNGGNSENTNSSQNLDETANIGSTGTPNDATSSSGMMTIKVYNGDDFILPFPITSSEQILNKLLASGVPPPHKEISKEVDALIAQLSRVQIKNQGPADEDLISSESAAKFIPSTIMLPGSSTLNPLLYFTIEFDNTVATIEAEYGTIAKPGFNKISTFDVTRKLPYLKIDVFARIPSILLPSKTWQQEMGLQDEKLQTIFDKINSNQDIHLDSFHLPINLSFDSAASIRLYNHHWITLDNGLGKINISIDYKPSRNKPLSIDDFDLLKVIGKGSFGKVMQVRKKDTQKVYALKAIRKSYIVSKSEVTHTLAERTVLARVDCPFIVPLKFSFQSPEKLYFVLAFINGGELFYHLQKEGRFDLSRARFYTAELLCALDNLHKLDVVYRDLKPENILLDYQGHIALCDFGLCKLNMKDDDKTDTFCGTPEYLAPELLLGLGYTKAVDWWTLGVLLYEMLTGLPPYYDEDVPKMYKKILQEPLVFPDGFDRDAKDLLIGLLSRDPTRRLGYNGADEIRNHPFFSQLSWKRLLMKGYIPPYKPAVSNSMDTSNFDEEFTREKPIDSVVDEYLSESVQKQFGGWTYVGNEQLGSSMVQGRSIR

Ypk1 [4] = target: T2, Ypk1; assay: Affinity purification of tagged protein kinase and LC-MS of bound metabolites; format: binding; conditions: identified against pure standards
Hmg1 = target: T3, Hmg1 (Saccharomyces cerevisiae, UniProt P12683); format: binding; conditions: probably low level of protein in the preparation
T3 sequence (P12683 1-1054): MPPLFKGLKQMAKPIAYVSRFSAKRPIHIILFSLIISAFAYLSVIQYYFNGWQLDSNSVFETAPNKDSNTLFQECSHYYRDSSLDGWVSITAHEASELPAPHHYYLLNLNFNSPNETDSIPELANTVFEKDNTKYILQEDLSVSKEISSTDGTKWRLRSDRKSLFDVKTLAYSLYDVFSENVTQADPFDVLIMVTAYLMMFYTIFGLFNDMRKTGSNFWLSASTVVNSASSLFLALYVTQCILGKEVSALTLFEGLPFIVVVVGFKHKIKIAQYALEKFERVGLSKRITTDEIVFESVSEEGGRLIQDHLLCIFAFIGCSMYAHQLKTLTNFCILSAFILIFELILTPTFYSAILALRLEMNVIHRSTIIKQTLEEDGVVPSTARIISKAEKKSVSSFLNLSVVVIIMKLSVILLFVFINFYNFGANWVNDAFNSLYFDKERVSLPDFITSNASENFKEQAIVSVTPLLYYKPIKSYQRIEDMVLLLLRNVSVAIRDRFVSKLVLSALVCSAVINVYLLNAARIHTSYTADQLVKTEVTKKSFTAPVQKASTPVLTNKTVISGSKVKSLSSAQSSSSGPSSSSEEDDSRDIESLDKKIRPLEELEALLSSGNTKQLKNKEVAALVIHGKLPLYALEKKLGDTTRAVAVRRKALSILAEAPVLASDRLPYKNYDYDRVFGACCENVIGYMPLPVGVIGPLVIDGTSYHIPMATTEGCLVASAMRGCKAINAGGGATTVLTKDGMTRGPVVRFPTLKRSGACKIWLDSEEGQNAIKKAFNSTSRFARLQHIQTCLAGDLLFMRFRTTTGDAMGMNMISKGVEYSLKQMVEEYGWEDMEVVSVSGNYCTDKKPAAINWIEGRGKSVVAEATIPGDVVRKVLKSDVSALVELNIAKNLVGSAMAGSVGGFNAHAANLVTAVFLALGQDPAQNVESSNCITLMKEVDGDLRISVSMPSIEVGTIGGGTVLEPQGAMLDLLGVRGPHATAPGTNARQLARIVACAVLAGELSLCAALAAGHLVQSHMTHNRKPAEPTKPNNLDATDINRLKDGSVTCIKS

SMILES: CC(C)[C@@H](C)/C=C/[C@@H](C)[C@H]1CC[C@H]2C3=CC=C4C[C@@H](O)CC[C@]4(C)[C@H]3CC[C@]12C [ergosterol]
- number of Erg proteins the metabolite co-purified with [1]: 5
- shape of binding curve over increasing free ergosterol [2]: close to linear
- binding to Kin4 (Kin4): specific binding
- Ypk1 in vitro kinase activity with increasing concentrations of ergosterol (Ypk1 [3]; Ypk1 from erg4Δ strain lacking ergosterol): could not be stimulated
- Ypk1 in vitro kinase activity with increasing concentrations of ergosterol (Ypk1 [3]; Ypk1 from wild type cells grown in the presence of 0.4 mM ergosterol): could be stimulated to a similar extent
- metabolite extracted from Ypk1 (Ypk1 [4]): bound metabolite
- detection with Hmg1 (Hmg1): not detected
